Each block holds one compound with its values, some of them ahead of it.
How the values were obtained:
[1] = target: human neurokinin NK1 receptors (Homo sapiens, UniProt P25103); assay: NK1-mediated PI hydrolysis measured with Zr4+-SPA beads (IMAC-SPA); format: cell-based
PDGF receptor = assay: PDGF receptor-mediated PI hydrolysis in quiescent Swiss 3T3 cells measured with Zr4+-SPA beads; format: cell-based
Experimental: Swiss 3 T 3 cells were maintained in DMEM medium supplemented with 10% heat-inactivated calf serum. For PI hydrolysis assay, the cells were grown in 96-well plates in [^3H]inositol-containing medium for 16-48 hr, then deprived of serum for 24 hr. The cells were stimulated with PDGF-BB for 45-60 min and the inositol phosphate accumulated in the cells was measured by IMAC-SPA in the same way as described for NK1 receptors.
The PDGF receptor belongs to the superfamily of tyrosine kinase-linked growth factor receptors. Stimulation of the PDGF receptor leads to activation of PLC-y through Ras-related GTPase (Ji et al., 1999, Mol. Cell. Biol., 1999. 19:49614970; Wang et al., 1998, Mol. Cell. Biol., 18:590-597; Heldin et al., 1998, Biochim. Biophys. Acta, 1378:F79-113; Stice et al., 1999, Front. Biosci., 4:D72-86).

Sequence of human neurokinin NK1 receptors (P25103 whole entry): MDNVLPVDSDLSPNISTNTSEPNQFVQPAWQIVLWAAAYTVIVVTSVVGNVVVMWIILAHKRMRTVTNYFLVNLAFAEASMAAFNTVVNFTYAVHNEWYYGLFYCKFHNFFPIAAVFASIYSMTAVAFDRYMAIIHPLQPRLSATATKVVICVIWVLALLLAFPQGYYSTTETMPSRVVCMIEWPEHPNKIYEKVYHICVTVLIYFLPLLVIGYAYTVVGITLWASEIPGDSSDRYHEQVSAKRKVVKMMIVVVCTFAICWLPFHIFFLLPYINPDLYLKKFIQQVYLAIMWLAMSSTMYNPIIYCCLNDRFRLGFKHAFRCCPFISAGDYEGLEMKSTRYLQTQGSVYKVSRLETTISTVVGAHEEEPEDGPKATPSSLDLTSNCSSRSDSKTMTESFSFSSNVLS

inhibition of PI hydrolysis induced by Substance P (mode) ([1]; NK1 CHO cells, shifted the concentration-response curve to the right): inhibited competitively
Compound: FC(F)(F)c1cc(CO[C@H]2CCCN[C@H]2c2ccccc2)cc(C(F)(F)F)c1 [L-733060]

EC50 of stimulation of PI hydrolysis (PDGF receptor): 3.0 ng/mL
Compound: PDGF-BB: Human recombinant platelet-derived growth factor (PDGF-BB) from Calbiochem
maximal increase in inositol phosphate production (PDGF receptor): 5 fold

Compound: Substance P
increase in signal ([3H]inositol phosphate) over the control ([1]; 0.1 μM, CHO cells expressing NK1 receptor, Zr4+-loaded SPA beads, saline control): 12 fold
